Active and inactive are the calls of the source.
Assays:
[1] = biological target: T1, Polyadenylate-binding protein 1 (Homo sapiens, UniProt P11940); assay: SAR analysis for the identification of translation initiation inhibitors (PABP) via an Electrophoretic Mobility Shift Dose Response Assay. [Related pubchem assays (depositor defined):AID2012, AID2014, AID2030]; format: functional
[2] = biological target: T2, Eukaryotic translation initiation factor 4H (Homo sapiens, UniProt Q15056); assay: human eIF4H binding inhibitors, primary screen, translation initiation inhibitor project, biochemical, uHTS, fluorescence polarization (AID 2012)
[3] = biological target: T1, Polyadenylate-binding protein 1; assay: PABP poly(A) RNA binding inhibitors, primary screen, biochemical, fluorescence polarization, uHTS (AID 2014)
Estrogen receptor beta = Estrogen receptor beta (Homo sapiens, UniProt Q92731);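 also: recombinant ER-beta bound to coactivator SRC1 peptide in presence of estradiol agonist; inhibitors block coactivator peptide binding and lower the FRET signal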
[4] = biological target: T1, Polyadenylate-binding protein 1; assay: PABP inhibition in translation initiation, SAR follow-up (AID 435018); format: functional
[5] = biological target: T2, Eukaryotic translation initiation factor 4H; assay: eIF4H inhibition in translation initiation, SAR follow-up (AID 435011); format: functional
Trypsin = Trypsin (Sus scrofa, UniProt P00761); assay: porcine trypsin inhibitors, dose response, selectivity assay for Rce1 protease inhibitor project, biochemical, quenched peptide fluorescence, cherry-pick (AID 488789)
CAAX prenyl protease 1 = CAAX prenyl protease 1 (Saccharomyces cerevisiae S288c, UniProt P47154); assay: Ste24 protease inhibitors, dose response, biochemical, S. cerevisiae, plate reader, cherry-pick (AID 488815)
Cytochrome P450 2D6 [6] = biological target: T3, Cytochrome P450 2D6 (Homo sapiens, UniProt P10635);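 also: CYP2D6 member of a cytochrome P450 panel assay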
Cytochrome P450 2C19 = Cytochrome P450 2C19 (Homo sapiens, UniProt P33261); assay: Cytochrome panel assay with activity outcomes. Panel member name: p450-cyp2c19 Compounds with AC50 equal or less than 10 uM are considered active; format: functional
Cytochrome P450 1A2 = biological target: T4, Cytochrome P450 1A2 (Homo sapiens, UniProt P05177);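 also: PubChem cytochrome P450 panel assay, CYP1A2 panel member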
T4 sequence (P05177 whole entry): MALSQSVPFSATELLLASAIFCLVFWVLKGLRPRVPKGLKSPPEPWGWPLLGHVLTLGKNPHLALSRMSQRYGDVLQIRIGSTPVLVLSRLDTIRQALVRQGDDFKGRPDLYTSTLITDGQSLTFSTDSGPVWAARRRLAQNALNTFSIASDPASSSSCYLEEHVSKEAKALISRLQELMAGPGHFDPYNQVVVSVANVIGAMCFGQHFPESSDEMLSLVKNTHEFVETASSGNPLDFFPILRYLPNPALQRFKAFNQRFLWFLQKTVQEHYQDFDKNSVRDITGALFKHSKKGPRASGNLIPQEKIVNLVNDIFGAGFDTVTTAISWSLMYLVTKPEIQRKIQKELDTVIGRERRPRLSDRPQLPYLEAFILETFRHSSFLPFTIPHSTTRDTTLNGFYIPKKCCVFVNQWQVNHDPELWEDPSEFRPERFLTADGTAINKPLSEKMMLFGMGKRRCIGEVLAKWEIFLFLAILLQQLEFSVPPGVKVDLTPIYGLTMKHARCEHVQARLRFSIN

Cytochrome P450 2D6 [7] = biological target: T3, Cytochrome P450 2D6; remark: listed apart in the source
Cytochrome P450 3A4 = Cytochrome P450 3A4 (Homo sapiens, UniProt P08684);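 also: CYP3A4 tested as one member of a cytochrome P450 panel screen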
Exodeoxyribonuclease V = Exodeoxyribonuclease V (Escherichia coli (strain K12), UniProt P04993+P07648+P08394); assay: E. coli RecBCD inhibitors, dose response, counter-screen for AddAB inhibitor project, absorbance, V66 E. coli, mutant T4 phage (AID 492957); format: functional, cell-based, Escherichia coli str. K-12 substr. MG1655
[8] = Counterscreen for AddAB inhibitors: absorbance-based bacterial cell-based high throughput dose response assay for inhibitors of bacterial viability. [Related pubchem assays (depositor defined):AID435030, AID449728, AID449731, AID488942, AID488955, AID488956]; format: functional
[9] = biological target: T5, Voltage-gated N-type calcium channel alpha-1B subunit/Amyloid beta A4 precursor protein-binding family A member 1 (Homo sapiens, UniProt Q00975+Q02410); assay: disruptors of Mint-PDZ/N-type channel peptide interaction – biochemical, HTRF, SAR follow-up (AID 2489); format: functional
SUMO E1/E2 = SUMO E1/E2 (Homo sapiens, UniProt P63279+Q9UBE0+Q9UBT2); assay: SAR analysis of SUMOylation using HTRF in an in-Vitro dose response assay. [Related pubchem assays (depositor defined):AID2006, AID2011, AID2018, AID2069, AID2658]; format: functional
[10] = biological target: T5, Voltage-gated N-type calcium channel alpha-1B subunit/Amyloid beta A4 precursor protein-binding family A member 1; assay: disruptors of Mint-PDZ/N-type channel peptide interaction – biochemical, HTRF, set 2, SAR follow-up (AID 434980); format: functional
[11] = biological target: Lysine-specific demethylase 4A (Homo sapiens, UniProt O75164); assay: JMJD2A histone demethylase inhibitors, dose response, selectivity assay for GASC-1 inhibitor project, biochemical, DELFIA europium, cherry-picked samples (AID 488840)
[12] = biological target: Lysine-specific demethylase 4C (Homo sapiens, UniProt Q9H3R0); assay: GASC-1 (JMJD2C) histone demethylase inhibitors, dose response, biochemical, DELFIA europium, cherry-picked samples (AID 488835); format: functional
[13] = biological target: T6, Kappa-type opioid receptor (Homo sapiens, UniProt P41145); assay: SAR analysis of small molecule agonists of the kappa opioid receptor via a luminescent beta-arrestin assay - Set 3. [Related pubchem assays (depositor defined):AID1777, AID1785, AID1786, AID1966, AID2133, AID2136, AID2284, AID2500]; format: functional
[14] = biological target: T6, Kappa-type opioid receptor; format: functional
[15] = biological target: T6, Kappa-type opioid receptor; format: functional; remark: listed apart in the source
[16] = biological target: Neuropeptide Y receptor type 1 (Homo sapiens, UniProt P25929); format: functional;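 also: HEK293 cells with a CNG channel challenged with NPY then isoproterenol; potency as antagonist that reverses NPY suppression of cAMP signal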
[17] = biological target: T7, Heat shock factor protein 1 (Mus musculus, UniProt P38532); assay: HSF1 potentiators in luciferase reporter cells, confirmation, cell-based, NIH3T3, luminescence, dose retest (AID 435004); format: functional;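 also: stress induced by proteasome inhibitor MG132 added 30 min after compound; luciferase reporter driven by HSF1 response element in NIH3T3 cells; actives raise luminescence as potentiators of the MG132 stress response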
T7 sequence (P38532 whole entry): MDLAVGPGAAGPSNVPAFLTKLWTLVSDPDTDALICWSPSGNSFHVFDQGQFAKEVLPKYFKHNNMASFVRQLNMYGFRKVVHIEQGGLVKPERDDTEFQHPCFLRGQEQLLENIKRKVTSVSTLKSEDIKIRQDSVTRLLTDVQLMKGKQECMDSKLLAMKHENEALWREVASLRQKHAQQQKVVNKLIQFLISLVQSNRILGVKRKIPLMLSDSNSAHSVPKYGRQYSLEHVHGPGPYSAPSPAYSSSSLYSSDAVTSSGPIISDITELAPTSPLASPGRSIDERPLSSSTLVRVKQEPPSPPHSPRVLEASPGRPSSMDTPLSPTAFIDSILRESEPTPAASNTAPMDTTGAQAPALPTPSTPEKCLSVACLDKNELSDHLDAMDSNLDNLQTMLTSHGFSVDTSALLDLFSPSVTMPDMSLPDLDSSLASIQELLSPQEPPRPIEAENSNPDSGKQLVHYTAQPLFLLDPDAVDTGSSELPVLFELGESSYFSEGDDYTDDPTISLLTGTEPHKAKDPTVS

Mu-type opioid receptor [18] = biological target: T8, Mu-type opioid receptor (Homo sapiens, UniProt P35372); assay: MOR agonists by imaging, SAR follow-up, image-based (AID 2352); format: functional
[19] = biological target: T9, Delta-type opioid receptor (Homo sapiens, UniProt P41143); assay: DOR antagonists, SAR follow-up, image-based (AID 2357); format: functional
[20] = biological target: T6, Kappa-type opioid receptor; assay: KOR antagonists by imaging, SAR follow-up, image-based (AID 2348); format: functional
[21] = biological target: T9, Delta-type opioid receptor; assay: DOR agonists, SAR follow-up, image-based (AID 2370); format: functional
[22] = biological target: T9, Delta-type opioid receptor; assay: HTS Image-Based Screen for Agonists of the DOR Receptor. [Related pubchem assays (depositor defined):AID1777, AID1786, AID2133]; format: functional
[23] = biological target: Neuropeptide Y receptor type 2 (Homo sapiens, UniProt P49146); format: functional, cell-based;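 also: HEK293 cells expressing the receptor and a CNG channel; stimulus was NPY near EC95 followed by isoproterenol to raise cAMP; antagonist potency measured as restoring cAMP signal that NPY suppresses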
Mu-type opioid receptor [24] = biological target: T8, Mu-type opioid receptor; assay: MOR antagonists, SAR follow-up, image-based (AID 2420); format: functional;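 also: compounds added before stimulation of receptor with agonist DAMGO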
[25] = biological target: T9, Delta-type opioid receptor; assay: HTS Image-Based Screen for Antagonists of the DOR Receptor. [Related pubchem assays (depositor defined):AID1777, AID1785, AID1786, AID2133]; format: functional
[26] = biological target: T6, Kappa-type opioid receptor; assay: KOR agonist analogs, imaging readout, SAR follow-up, image-based (AID 2359); format: functional
Mu-type opioid receptor [27] = biological target: T8, Mu-type opioid receptor; assay: HTS Image-Based Screen for Agonists of the MOR Receptor. [Related pubchem assays (depositor defined):AID1777, AID1785, AID1786, AID2133]; format: functional
[28] = biological target: T6, Kappa-type opioid receptor; assay: SAR analysis of small molecule agonists of the kappa opioid receptor via a luminescent beta-arrestin assay. [Related pubchem assays (depositor defined):AID1777, AID1786, AID1966, AID2133, AID2136, AID2348, AID2352, AID2357, AID2359, AID2370, AID2420, AID2478, AID2491, AID2492, AID2493, AID2497, AID2498, AID2500, AID449737, AID488822, AID488842]; format: functional
[29] = biological target: T10, Intestinal-type alkaline phosphatase (Homo sapiens, UniProt P09923); assay: human IAP activators, dose response, biochemical, luminescent, uHTS hits, set 2 (AID 488817); format: functional;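 also: potency of activators that raise enzyme activity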
[30] = biological target: T10, Intestinal-type alkaline phosphatase; assay: human intestinal alkaline phosphatase activators, dose response, biochemical, luminescence, uHTS hits (AID 463120); format: functional
[31] = biological target: Intestinal-type alkaline phosphatase (Mus musculus, UniProt P24822); assay: PubChem AID 488874; format: functional
[32] = biological target: T11, Alkaline phosphatase, tissue-nonspecific isozyme (Homo sapiens, UniProt P05186); assay: TNAP enzyme activators, dose response, selectivity assay for human IAP activator project, biochemical, TNAP isozyme, human IAP uHTS hits (AID 488886); format: functional;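 also: potency of compounds raising TNAP activity as a selectivity check on IAP activators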
T11 sequence (P05186 whole entry): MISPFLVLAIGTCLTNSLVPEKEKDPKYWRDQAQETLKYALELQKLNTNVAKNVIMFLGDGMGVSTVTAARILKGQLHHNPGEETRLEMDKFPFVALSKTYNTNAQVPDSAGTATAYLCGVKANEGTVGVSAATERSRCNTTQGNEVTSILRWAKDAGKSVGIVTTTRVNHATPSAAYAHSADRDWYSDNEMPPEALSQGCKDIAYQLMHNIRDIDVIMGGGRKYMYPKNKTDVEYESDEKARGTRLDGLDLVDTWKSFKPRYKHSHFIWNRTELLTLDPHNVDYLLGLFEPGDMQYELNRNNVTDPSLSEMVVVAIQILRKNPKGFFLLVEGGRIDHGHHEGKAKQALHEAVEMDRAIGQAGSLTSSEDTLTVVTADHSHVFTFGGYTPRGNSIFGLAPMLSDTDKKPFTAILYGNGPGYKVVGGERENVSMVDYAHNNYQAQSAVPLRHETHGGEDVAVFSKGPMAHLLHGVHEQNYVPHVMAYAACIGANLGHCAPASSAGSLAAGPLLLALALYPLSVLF

T9 sequence (P41143 whole entry): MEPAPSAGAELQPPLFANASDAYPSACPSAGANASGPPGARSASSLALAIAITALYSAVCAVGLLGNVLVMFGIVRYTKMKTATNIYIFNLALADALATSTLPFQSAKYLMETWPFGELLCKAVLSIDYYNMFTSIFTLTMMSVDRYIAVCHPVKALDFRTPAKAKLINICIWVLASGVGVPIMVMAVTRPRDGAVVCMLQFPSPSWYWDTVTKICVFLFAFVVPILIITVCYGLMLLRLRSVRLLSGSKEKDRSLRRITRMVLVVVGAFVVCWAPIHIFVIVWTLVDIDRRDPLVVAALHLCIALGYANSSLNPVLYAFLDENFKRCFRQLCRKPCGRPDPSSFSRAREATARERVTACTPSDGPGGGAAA
T1 sequence (P11940 whole entry): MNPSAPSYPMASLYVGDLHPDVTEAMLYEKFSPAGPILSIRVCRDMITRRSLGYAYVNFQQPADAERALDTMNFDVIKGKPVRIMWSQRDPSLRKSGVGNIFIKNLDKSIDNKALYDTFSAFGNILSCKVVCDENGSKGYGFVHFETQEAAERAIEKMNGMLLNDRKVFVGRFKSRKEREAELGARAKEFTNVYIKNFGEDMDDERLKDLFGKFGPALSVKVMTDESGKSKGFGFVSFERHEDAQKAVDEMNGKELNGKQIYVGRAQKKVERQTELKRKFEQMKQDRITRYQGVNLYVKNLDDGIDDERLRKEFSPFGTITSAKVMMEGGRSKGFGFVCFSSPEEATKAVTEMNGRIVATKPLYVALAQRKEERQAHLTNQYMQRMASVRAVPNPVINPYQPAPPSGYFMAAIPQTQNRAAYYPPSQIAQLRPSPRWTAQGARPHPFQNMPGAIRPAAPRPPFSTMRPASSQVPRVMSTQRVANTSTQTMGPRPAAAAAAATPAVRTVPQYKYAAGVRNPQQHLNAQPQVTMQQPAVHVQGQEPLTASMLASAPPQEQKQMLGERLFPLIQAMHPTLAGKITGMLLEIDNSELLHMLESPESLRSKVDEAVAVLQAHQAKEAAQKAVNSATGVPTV
T6 sequence (P41145 whole entry): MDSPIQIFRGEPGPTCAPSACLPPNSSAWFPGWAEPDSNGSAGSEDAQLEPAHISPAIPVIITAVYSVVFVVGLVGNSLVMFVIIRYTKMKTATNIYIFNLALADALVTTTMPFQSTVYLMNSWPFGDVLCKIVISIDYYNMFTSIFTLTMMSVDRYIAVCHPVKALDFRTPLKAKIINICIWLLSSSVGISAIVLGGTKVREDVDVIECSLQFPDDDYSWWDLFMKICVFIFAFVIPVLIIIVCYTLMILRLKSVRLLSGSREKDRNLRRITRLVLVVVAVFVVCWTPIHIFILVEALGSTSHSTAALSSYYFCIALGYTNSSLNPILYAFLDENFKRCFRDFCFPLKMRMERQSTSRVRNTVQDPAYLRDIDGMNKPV
T8 sequence (P35372 whole entry): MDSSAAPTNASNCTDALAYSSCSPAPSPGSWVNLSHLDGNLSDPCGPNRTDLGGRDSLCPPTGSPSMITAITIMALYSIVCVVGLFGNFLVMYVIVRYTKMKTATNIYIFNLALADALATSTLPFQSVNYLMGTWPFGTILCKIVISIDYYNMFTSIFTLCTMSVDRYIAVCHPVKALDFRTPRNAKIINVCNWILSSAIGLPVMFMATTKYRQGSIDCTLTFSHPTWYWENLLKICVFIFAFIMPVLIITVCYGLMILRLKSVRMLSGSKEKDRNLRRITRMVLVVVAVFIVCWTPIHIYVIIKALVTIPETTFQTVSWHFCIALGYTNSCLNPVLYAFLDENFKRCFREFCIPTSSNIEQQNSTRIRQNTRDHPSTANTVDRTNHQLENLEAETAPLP
T3 sequence (P10635 whole entry): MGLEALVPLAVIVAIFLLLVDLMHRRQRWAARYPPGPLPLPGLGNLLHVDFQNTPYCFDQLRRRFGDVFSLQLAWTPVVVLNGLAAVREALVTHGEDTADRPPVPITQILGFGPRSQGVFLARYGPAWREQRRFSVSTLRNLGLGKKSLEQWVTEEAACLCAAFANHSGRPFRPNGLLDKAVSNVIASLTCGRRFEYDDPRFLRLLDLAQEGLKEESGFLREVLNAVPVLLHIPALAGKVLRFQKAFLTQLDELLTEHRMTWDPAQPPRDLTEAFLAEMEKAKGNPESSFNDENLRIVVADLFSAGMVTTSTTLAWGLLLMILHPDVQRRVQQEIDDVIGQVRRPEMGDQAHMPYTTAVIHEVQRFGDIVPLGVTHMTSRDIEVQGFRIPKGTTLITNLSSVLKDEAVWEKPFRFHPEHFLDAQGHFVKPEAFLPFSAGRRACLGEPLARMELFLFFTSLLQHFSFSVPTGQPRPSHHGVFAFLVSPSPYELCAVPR
T10 sequence (P09923 whole entry): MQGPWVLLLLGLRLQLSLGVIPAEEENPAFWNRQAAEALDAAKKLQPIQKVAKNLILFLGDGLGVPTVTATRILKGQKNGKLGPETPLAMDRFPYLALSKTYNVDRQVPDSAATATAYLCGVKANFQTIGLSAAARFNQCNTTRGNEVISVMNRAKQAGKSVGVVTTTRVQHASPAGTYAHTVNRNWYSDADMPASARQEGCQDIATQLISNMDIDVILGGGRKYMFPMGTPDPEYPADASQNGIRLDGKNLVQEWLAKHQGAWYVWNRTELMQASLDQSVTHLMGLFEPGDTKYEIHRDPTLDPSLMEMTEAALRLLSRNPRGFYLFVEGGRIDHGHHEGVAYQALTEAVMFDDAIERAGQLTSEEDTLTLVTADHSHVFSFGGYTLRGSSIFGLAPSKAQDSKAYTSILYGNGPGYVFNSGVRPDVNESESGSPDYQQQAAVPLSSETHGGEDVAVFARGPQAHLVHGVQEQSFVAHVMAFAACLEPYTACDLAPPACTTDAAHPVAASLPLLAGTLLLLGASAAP
SUMO E1/E2, sequence (Q9UBE0 whole entry): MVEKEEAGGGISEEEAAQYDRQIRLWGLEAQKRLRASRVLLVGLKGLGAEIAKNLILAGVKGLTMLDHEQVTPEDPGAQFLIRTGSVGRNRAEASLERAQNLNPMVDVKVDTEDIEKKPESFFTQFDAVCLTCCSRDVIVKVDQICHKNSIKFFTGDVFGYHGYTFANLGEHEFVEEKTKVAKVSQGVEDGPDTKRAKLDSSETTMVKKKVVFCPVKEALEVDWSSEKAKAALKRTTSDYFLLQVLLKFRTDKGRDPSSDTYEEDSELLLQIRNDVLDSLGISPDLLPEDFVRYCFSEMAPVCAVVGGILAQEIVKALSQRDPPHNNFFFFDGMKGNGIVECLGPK
SUMO E1/E2, sequence (Q9UBT2 whole entry): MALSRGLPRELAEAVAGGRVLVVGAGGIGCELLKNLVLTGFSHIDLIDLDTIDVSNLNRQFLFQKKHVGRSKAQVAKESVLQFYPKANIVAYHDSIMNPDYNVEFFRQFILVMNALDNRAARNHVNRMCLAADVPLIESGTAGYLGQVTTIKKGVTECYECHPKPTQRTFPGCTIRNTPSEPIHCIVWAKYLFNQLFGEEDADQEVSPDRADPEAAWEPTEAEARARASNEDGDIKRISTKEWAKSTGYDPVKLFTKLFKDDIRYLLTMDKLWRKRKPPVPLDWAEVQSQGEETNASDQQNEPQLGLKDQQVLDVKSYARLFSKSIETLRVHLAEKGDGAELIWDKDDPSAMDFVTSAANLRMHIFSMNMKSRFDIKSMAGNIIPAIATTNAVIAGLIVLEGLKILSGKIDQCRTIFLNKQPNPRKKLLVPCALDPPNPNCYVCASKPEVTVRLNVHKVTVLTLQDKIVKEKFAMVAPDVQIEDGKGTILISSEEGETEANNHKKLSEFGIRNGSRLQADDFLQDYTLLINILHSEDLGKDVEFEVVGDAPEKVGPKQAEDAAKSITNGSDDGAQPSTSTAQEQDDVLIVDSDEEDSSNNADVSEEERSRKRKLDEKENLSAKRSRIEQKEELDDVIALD
SUMO E1/E2, sequence (P63279 whole entry): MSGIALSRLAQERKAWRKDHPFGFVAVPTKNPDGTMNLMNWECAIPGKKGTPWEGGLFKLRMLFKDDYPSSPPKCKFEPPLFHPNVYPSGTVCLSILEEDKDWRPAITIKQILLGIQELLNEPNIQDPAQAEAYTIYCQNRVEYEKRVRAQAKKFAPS
Cytochrome P450 3A4, sequence (P08684 whole entry): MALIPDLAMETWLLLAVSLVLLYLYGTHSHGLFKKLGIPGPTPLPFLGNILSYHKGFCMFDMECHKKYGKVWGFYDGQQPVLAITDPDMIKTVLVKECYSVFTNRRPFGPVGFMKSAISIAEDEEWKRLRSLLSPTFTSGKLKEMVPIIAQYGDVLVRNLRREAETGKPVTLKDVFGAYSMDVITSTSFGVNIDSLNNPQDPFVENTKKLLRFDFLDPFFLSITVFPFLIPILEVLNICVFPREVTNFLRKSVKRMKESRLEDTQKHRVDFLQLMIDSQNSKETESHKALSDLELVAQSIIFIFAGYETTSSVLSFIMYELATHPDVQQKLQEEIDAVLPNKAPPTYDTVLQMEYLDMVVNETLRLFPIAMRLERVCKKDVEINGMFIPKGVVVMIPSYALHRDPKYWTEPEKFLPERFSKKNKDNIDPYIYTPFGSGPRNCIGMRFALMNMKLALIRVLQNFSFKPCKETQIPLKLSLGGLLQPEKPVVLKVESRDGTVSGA
Trypsin, sequence (P00761 whole entry): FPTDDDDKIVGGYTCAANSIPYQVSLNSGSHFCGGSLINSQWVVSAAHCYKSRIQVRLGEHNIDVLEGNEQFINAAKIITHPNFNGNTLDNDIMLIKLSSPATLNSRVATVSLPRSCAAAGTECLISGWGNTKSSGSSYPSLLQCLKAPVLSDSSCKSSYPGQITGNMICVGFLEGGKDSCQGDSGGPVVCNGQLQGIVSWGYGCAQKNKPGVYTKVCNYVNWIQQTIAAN

CCOC(=O)N1CCC(NC(=O)c2cccc3c2C(=O)N(c2ccc(OC)cc2)C3)CC1
IC50 [1]: 10 µM (active)
IC50 [2]: 9.51 µM (active)
IC50 [3]: 76.2 µM (active)
IC50 (Estrogen receptor beta): > 50 µM (not active)
IC50 [4]: > 100 µM (inactive)
IC50 [5]: 6.47 µM (active)

C=CCNc1oc(/C=C/c2ccccc2)nc1C#N
AC50 (Trypsin): 23.5 µM (active)
AC50 (CAAX prenyl protease 1): 63.7 µM (active)
AC50 (Cytochrome P450 2D6 [6]): 20 µM (inconclusive)

O=C(O)c1cc(-c2ccc(F)cc2F)ccc1O [DIFLUNISAL]
AC50 (Cytochrome P450 2C19): inactive
AC50 (Cytochrome P450 1A2): inactive
AC50 (Cytochrome P450 2D6 [7]): inactive
AC50 (Cytochrome P450 3A4): inactive

O=C(CSc1nc2ccccc2o1)Nc1ccc(N2CCOCC2)cc1
IC50 (Exodeoxyribonuclease V): > 119 µM (inactive)
IC50 [8]: > 119 µM (inactive)

O=C(OCC(=O)N1CCc2ccccc2C1)c1cc(-c2ccco2)nc2ccccc12
IC50 [9]: > 56.8 µM (inactive)
IC50 (SUMO E1/E2): 3.76 µM (active)
IC50 [10]: 10.2 µM (active)

CCCCn1c(-c2ccsc2)nc2c1c(=O)[nH]c(=O)n2CCC
AC50 [11]: 12.2 µM (active)
AC50 [12]: 4.19 µM (active)

Brc1ccc(CSc2nnc(-c3ccncc3)n2Cc2ccco2)cc1
EC50 [13]: > 20 µM (inactive)

Brc1ccc(CSc2nnc(-c3ccccn3)n2Cc2ccco2)cc1
EC50 [14]: 1.88 µM
EC50 [15]: 5.64 µM
IC50 [16]: 7.44 µM (active)
EC50 [17]: 36.6 µM (active)
EC50 (Mu-type opioid receptor [18]): > 32 µM (inactive)
IC50 [19]: > 32 µM (inactive)
IC50 [20]: > 32 µM (inactive)
EC50 [21]: > 32 µM (inactive)
EC50 [22]: > 32 µM (inactive)
IC50 [23]: 8.06 µM (active)
IC50 (Mu-type opioid receptor [24]): > 32 µM (inactive)
IC50 [25]: > 32 µM (inactive)
EC50 [26]: 1.36 µM (active)
EC50 (Mu-type opioid receptor [27]): > 32 µM (inactive)
EC50 [28]: 1.92 µM (active)

CCOc1cc(/C=N/NC(=O)C(=O)N/N=C/c2ccc(O)c(OCC)c2)ccc1O
EC50 [29]: 100 µM (inactive)
EC50 [30]: 29.1 µM (active)
IC50 [31]: > 100 µM (inactive)
EC50 [32]: > 100 µM (inactive)

Reference: ChEMBL document CHEMBL1201862, “PubChem BioAssay data set” (2004)
